Source: patent publication US8592469B2, “Diazonamide analogs” (Joyant Pharmaceuticals, Inc., priority 2012, dated 2013)

Experiments:
U937 cells = test: Cell viability assay (Cell-Titer-Glo) in U937 cells; assay type: cell-based; conditions: Homo sapiens, U-937, 48 hour treatment, test compounds 1 nM to 1 μM
Method: (§1) Cell viability assays were run using standard protocols known to those of skill in art. Cells were plated in 96 well plates at the density of 3,000-10,000 cells per well. Twenty four hours later, cells were treated with increasing concentration of test compounds (1 nM to 1 μM). After another 48 hour, cell survival was measured using Cell-Titer-Glo® reagent (Promega) following the protocol provided by the manufacture. The IC50 value was determined as the concentration of test compound that kills 50% of the cell population.
(§2) Cell viability data generated according to the protocol described above was generated for representative compounds in A2058 and U937 cells. The compounds shown in Table 1 were prepared by the methods described herein for structurally similar compounds. The reference compound was a synthetic diazonamide analog having the structure: […]

A2058 cells = test: Cell viability assay (Cell-Titer-Glo) in A2058 cells; assay type: cell-based; conditions: Homo sapiens, 48 hour treatment, test compounds 1 nM to 1 μM
Method: as §1, §2

SMILES	IC50 (U937 cells) [nM]	IC50 (A2058 cells) [nM]
CCC(O)(CC)C(=O)N[C@H]1Cc2ccc3c(c2)C2(C4=C(c5nc(C(=O)OC)co5)N=C(O4)[C@H](C(C)(C)C)NC1=O)c1ccccc1N[C@H]2O3 (stereo partly drawn) [Compound 63]	1.97	15.5
CCC(O)(CC)C(=O)N[C@H]1Cc2ccc3c(c2)C2(C4=C(c5nc(CO)co5)N=C(O4)[C@H](C(C)(C)C)NC1=O)c1ccccc1N[C@H]2O3 (stereo partly drawn) [Compound 64]	45.9	43.2
CCC(O)(CC)C(=O)N[C@H]1Cc2ccc3c(c2)C2(C4=C(c5nc(C#N)co5)N=C(O4)[C@H](C(C)(C)C)NC1=O)c1ccccc1N[C@H]2O3 (stereo partly drawn) [Compound 65]	67.6	16.8
CC(C)=CC(=O)N[C@H]1Cc2ccc3c(c2)C2(C4=C(c5nc(C#N)co5)N=C(O4)[C@H](C(C)(C)C)NC1=O)c1ccccc1N[C@H]2O3 (stereo partly drawn) [Compound 66]	215	186
CC(C)C[C@H](O)C(=O)NC1Cc2ccc3c(c2)C2(C4=C(c5nc(C#N)co5)N=C(O4)[C@H](C(C)(C)C)NC1=O)c1ccccc1N[C@H]2O3 (stereo partly drawn) [Compound 67]	89.7	35.8
CCC(C)(O)C(=O)N[C@H]1Cc2ccc3c(c2)C2(C4=C(c5nc(C#N)co5)N=C(O4)[C@H](C(C)(C)C)NC1=O)c1ccccc1N[C@H]2O3 (stereo partly drawn) [Compound 68]	59.6	21.1
CCC(C)(C)C(=O)NC1Cc2ccc3c(c2)C2(C4=C(c5nc(C#N)co5)N=C(O4)[C@H](C(C)(C)C)NC1=O)c1ccccc1N[C@H]2O3 (stereo partly drawn) [Compound 69]	225	95.5
COC(=O)c1coc(-c2nc3oc2[C@@]24c5ccccc5NC2Oc2c(Cl)cc(cc24)CC(NC(=O)[C@@H](O)C(C)C)C(=O)N[C@H]3C(C)C)n1 (stereo partly drawn) [Compound 70]	15	77
COC(=O)c1coc(-c2nc3oc2[C@@]24c5ccccc5NC2Oc2c(F)cc(cc24)CC(NC(=O)[C@@H](O)C(C)C)C(=O)N[C@H]3C(C)C)n1 (stereo partly drawn) [Compound 71]	9.2	67
CCCCCCc1cc2cc3c1O[C@@H]1Nc4ccccc4C31c1oc(nc1-c1nc(C(=O)OC)co1)[C@H](C(C)C)NC(=O)[C@@H](NC(=O)[C@@H](O)C(C)C)C2 (stereo partly drawn) [Compound 72]	213	> 300
COC(=O)c1coc(-c2nc3oc2C24c5ccccc5N[C@H]2Oc2ccc(cc24)CC[C@H](NC(=O)[C@@H](O)C(C)C)C(=O)N[C@H]3C(C)(C)C)n1 (stereo partly drawn) [Compound 73]	< 0.1	< 0.1
COC(=O)c1coc(-c2nc3oc2[C@]24c5ccccc5NC2Oc2ccc(cc24)CC[C@H](NC(=O)[C@@H](O)C(C)C)C(=O)N[C@H]3C(C)(C)C)n1 (stereo partly drawn) [Compound 74]	> 100	> 100
CC(C)[C@H](O)C(=O)N[C@H]1CCc2ccc3c(c2)[C@]2(C4=C(c5nc(CO)co5)N=C(O4)[C@H](C(C)(C)C)NC1=O)c1ccccc1NC2O3 (stereo partly drawn) [Compound 75]	6.55	1.89
COC(=O)c1coc(-c2nc3oc2C24c5cc(ccc5O[C@@H]2N(S(C)(=O)=O)c2ccccc24)C[C@H](NC(=O)[C@@H](O)C(C)C)C(=O)N[C@H]3C(C)C)n1 (stereo partly drawn) [Compound 76]	614	> 1000
CC(C)[C@H](O)C(=O)N[C@H]1Cc2ccc3c(c2)C2(C4=C(c5nc(CO)co5)N=C(O4)[C@H](C(C)C)NC1=O)c1ccccc1N(S(C)(=O)=O)[C@H]2O3 (stereo partly drawn) [Compound 77]	777	> 1000
COC(=O)c1coc(-c2nc3oc2C24c5cc(ccc5O[C@@H]2N(C)c2ccccc24)C[C@H](NC(=O)[C@@H](O)C(C)C)C(=O)N[C@H]3C(C)C)n1 (stereo partly drawn) [Compound 78]	17.4	114
COC(=O)c1coc(-c2nc3oc2C24c5cc(ccc5O[C@@H]2Nc2c(-c5ccccc5)cccc24)C[C@H](NC(=O)[C@@H](O)C(C)C)C(=O)N[C@H]3C(C)C)n1 (stereo partly drawn) [Compound 79]	210	270
COC(=O)c1coc(-c2nc3oc2C24c5cc(F)ccc5N[C@H]2Oc2ccc(cc24)C[C@H](NC(=O)[C@@H](O)C(C)C)C(=O)N[C@H]3C(C)C)n1 (stereo partly drawn) [Compound 80]	4.07	13.6
CC(C)[C@H](O)C(=O)N[C@H]1Cc2ccc3c(c2)[C@]2(C4=C(c5nc(CO)co5)N=C(O4)[C@H](C(C)C)NC1=O)c1cc(F)ccc1N[C@@H]2O3 [Compound 81]	32.8	55.1
COC(=O)c1coc(-c2nc3oc2C24c5ccc(F)cc5N[C@H]2Oc2ccc(cc24)C[C@H](NC(=O)[C@@H](O)C(C)C)C(=O)N[C@H]3C(C)C)n1 (stereo partly drawn) [Compound 82]	3.4	40.9
CC(C)[C@H](O)C(=O)N[C@H]1Cc2ccc3c(c2)C2(C4=C(c5nc(CO)co5)N=C(O4)[C@H](C(C)C)NC1=O)c1ccc(F)cc1N[C@H]2O3 (stereo partly drawn) [Compound 83]	60.6	184

SMILES	IC50 (U937 cells) [nM]	IC50 (A2058 cells) [nM]
COC(=O)c1coc(-c2nc3oc2C24c5cc(Cl)ccc5N[C@H]2Oc2ccc(cc24)C[C@H](NC(=O)[C@@H](O)C(C)C)C(=O)N[C@H]3C(C)(C)C)n1 (stereo partly drawn) [Compound 84]	10.1	19.5
CC(C)[C@H](O)C(=O)N[C@H]1Cc2ccc3c(c2)[C@]2(C4=C(c5nc(CO)co5)N=C(O4)[C@H](C(C)(C)C)NC1=O)c1cc(F)ccc1N[C@@H]2O3 [Compound 85]	0.74	0.47
CC(C)[C@H](O)C(=O)N[C@H]1Cc2ccc3c(c2)[C@]2(C4=C(c5nc(C#N)co5)N=C(O4)[C@H](C(C)C)NC1=O)c1cc(F)ccc1N[C@@H]2O3 [Compound 86]	21.8	0.56
CC(C)[C@H](O)C(=O)N[C@H]1Cc2ccc3c(c2)[C@]2(C4=C(c5nc(C#N)co5)N=C(O4)[C@H](C(C)(C)C)NC1=O)c1cc(F)ccc1N[C@@H]2O3 [Compound 87]	1.9	< 0.3
COC(=O)c1coc(-c2nc3oc2[C@@]24c5ccccc5NC2Oc2ccc(cc24)C[C@H](N(C)C(=O)[C@@H](O)C(C)C)C(=O)N[C@H]3C(C)C)n1 (stereo partly drawn) [Compound 88]	0.6	0.8
CC(C)[C@H](O)C(=O)N(C)[C@H]1Cc2ccc3c(c2)[C@]2(C4=C(c5nc(CO)co5)N=C(O4)[C@H](C(C)C)NC1=O)c1ccccc1NC2O3 (stereo partly drawn) [Compound 89]	1	3
COC(=O)c1coc(-c2nc3oc2[C@@]24c5ccccc5NC2Oc2ccc(cc24)C[C@H](N(C)C(=O)[C@@H](O)C(C)C)C(=O)N[C@H]3C(C)(C)C)n1 (stereo partly drawn) [Compound 90]	17.1	10.4
CC(C)[C@H](O)C(=O)N(C)[C@H]1Cc2ccc3c(c2)[C@]2(C4=C(c5nc(C#N)co5)N=C(O4)[C@H](C(C)C)NC1=O)c1ccccc1NC2O3 (stereo partly drawn) [Compound 91]	1.97	0.59
COC(=O)c1coc(-c2nc3oc2[C@@]24c5ccccc5NC2Oc2ccc(cc24)C[C@H](NC(=O)[C@@H](O)C(C)C)C(=O)N(C)[C@H]3C(C)C)n1 (stereo partly drawn) [Compound 92]	69.9	113
COC(=O)c1coc(-c2nc3oc2[C@@]24c5ccccc5NC2Oc2ccc(cc24)C[C@H](N(C)C(=O)[C@@H](O)C(C)C)C(=O)N(C)[C@H]3C(C)C)n1 (stereo partly drawn) [Compound 93]	18.6	35.8
COC(=O)c1coc(-c2nc3oc2[C@]24c5ccccc5NC2Oc2ccc(cc24)C[C@H](NC(=O)[C@@H](O)C(C)C)C(=O)N(C)[C@H]3C(C)C)n1 (stereo partly drawn) [Compound 94]	> 300	> 300
CC(C)[C@H](O)C(=O)N[C@H]1Cc2ccc3c(c2)C2(C4=C(c5nc6cnccc6o5)N=C(O4)[C@H](C(C)C)NC1=O)c1ccccc1N[C@H]2O3 (stereo partly drawn) [Compound 95]	65	142
CC(C)[C@H](O)C(=O)N[C@H]1Cc2ccc3c(c2)[C@]2(C4=C(c5ccccc5)N=C(O4)[C@H](C(C)C)NC1=O)c1ccccc1NC2O3 (stereo partly drawn) [Compound 96]	> 1000	> 1000
COC(=O)c1csc(-c2nc3oc2C24c5ccccc5N[C@H]2Oc2ccc(cc24)C[C@H](NC(=O)[C@@H](O)C(C)C)C(=O)N[C@H]3C(C)C)n1 (stereo partly drawn) [Compound 97]	59.5	225
CC(C)[C@H](O)C(=O)N[C@H]1Cc2ccc3c(c2)C2(C4=C(c5nc(CO)cs5)N=C(O4)[C@H](C(C)C)NC1=O)c1ccccc1N[C@H]2O3 (stereo partly drawn) [Compound 98]	231	284
COC(=O)c1coc(-c2nc3oc2C24c5ccccc5N[C@H]2Oc2ccc(cc24)C[C@H](NC(=O)[C@@H](O)C(C)C)C(=O)N[C@@H]3C(C)C)n1 (stereo partly drawn) [Compound 99]	> 1000	> 1000
CC(C)[C@H](O)C(=O)N[C@H]1Cc2ccc3c(c2)[C@]2(C4=C(c5nc(CC(F)(F)F)co5)N=C(O4)[C@H](C(C)C)NC1=O)c1ccccc1NC2O3 (stereo partly drawn) [Compound 100]	220	465
CC(C)c1coc(-c2nc3oc2C24c5ccccc5N[C@H]2Oc2ccc(cc24)C[C@H](NC(=O)[C@@H](O)C(C)C)C(=O)N[C@H]3C(C)C)n1 (stereo partly drawn) [Compound 101]	500	684
COC(=O)c1coc(-c2nc3oc2[C@]24c5ccccc5NC2Oc2ccc(cc24)C[C@H](NC(=O)[C@@H](O)C(C)C)C(=O)N[C@H]3C(C)(C)C)n1 (stereo partly drawn) [Compound 103]	69	221
COC(=O)c1coc(-c2nc3oc2CC/C=C/C[C@H](NC(=O)[C@@H](O)C(C)C)C(=O)N[C@H]3C(C)C)n1 [Compound 104]	> 300	> 300
COC(=O)c1coc(-c2nc3oc2CCCCC[C@H](NC(=O)[C@@H](O)C(C)C)C(=O)N[C@H]3C(C)C)n1 [Compound 105]	> 300	> 300
